The text below walks through data of US9943496B2, “Dietary supplement based on ethyl ferulate” (LABORATORIOS MINKAB, S. A. DE C. V., priority 2015, dated 2018).

The subject of assay [1] is heifers. Put plainly: Productive performance test of heifers supplemented with ethyl ferulate in the diet. The format is in vivo, Bos taurus. The settings on record: for Final weight: last 30 days of intensive feeding; for Final weight / Feed conversion / Daily gain / Feed intake: mean ± standard error; for Feed conversion / Daily gain / Feed intake: last 30 days; for Feed conversion: feed consumption/daily gain. Here is the method: Productive performance test was conducted in the feedlot of a commercial farm, located in the state of Sonora, Mexico, at an altitude of 210 meters above sea level, latitude 29° 05′ 56″ and longitude 110° 57′ 15″ (INEGI, 2012).
Prior to the start of the study, 270 cattle (heifers) commercial beef producers crosses (of racial influence mainly Bos taurus), which were divided into three lots with uniform power days, racial origin and composition were selected. The animals were weighed individually and identified with plastic earring different color, to be distributed randomly according to a block design (3) complete random. To facilitate the handling of heifers and scheduling your humane slaughter, each block was postponed one week and was formed by three pens with 30 animals each.
Once done animals blocks, each pen within each block was completely randomized one of the following treatments: • Treatment CONT: Animals receiving the basal diet without additive (control). • Treatment FE5: Animals receiving the basal diet supplemented the last 30 days of fattening stage 5 ppm of ethyl ferulate. • Treatment FE10: Animals receiving the basal diet supplemented the last 30 days of the fattening phase with 10 ppm of ethyl ferulate.
The initial live weight of the animals was 484.68±2.84 kg. All animals were fed a basal diet with a ratio of forage:concentrate of 20:80, which was formulated to contain 1.62 Mcal of net energy gain/kg of feed, 12.7% crude protein, 0.91% Calcium and 0.27% phosphorus. The amount of ethyl ferulate per ton of feed was first added to the mineral premix and later it was incorporated into the automated experimental ration.
All animals were individually weighed at the beginning and end of the experimental test, for which an electronic scale Tru-Test 300 (Tru-Test Corporation, New Zealand) equipped with recording memory was used. Daily weight gain (GDP) was estimated by the difference between initial and final weight and divided by 30 (the feeding period).
Feed intake was recorded daily for corral, for which both the food offered and refused was weighed. Feed conversion per pen/treatment with the average food consumption ratio between GDP was also calculated.
(§1) Productive performance data were analyzed by ANOVA with a design of a randomized complete block using the method of generalized linear models (GLM) using initial weight as a covariate; data carcass quality were analyzed under a completely randomized design blocks. The variance analysis (mixed models procedure), included as a fixed effect to experimental treatments and as a random effect the initial weight of animals for productive performance data and final weight for carcass quality. The study data shelf life was analyzed using analysis of variance of two ways, considering the fixed effects of treatment and storage time. When differences between treatments were detected in productive performance variables and carcass quality, comparisons of means were performed by orthogonal contrasts. The following contrasts were tested: Contrast 1: Control vs FE5+FE10; Contrast 2: FE5 vs FE10. For data quality meat in the study of oxidative stability, the comparison of means was by the Tukey test. All data were processed in the statistical package NCSS (NCSS Version 8.0, 2012).

Assay [2] has as its system heifers. Put plainly: Sacrifice and evaluation of carcass quality of supplemented heifers. Format: in vivo, Bos taurus. Conditions: for Backfat / Cold carcass yield / Hot yield carcass / Rib eye area / Cold carcass weight / Hot carcass weight: last 30 days; for Cold carcass weight: 24 h postmortem; for Hot carcass weight: mean ± standard error; for Marbling: USDA marbling score (Little 500-599, Modesto 600-699); for % de Choice or greater: percentage of carcass classified Choice or higher. Here is the method: Once the productive performance test was finished, the animals were sacrificed following the current regulations.
The pH was measured at 45 min and 24 h postmortem in the Longissimus dorsi (LD) at the 12th intercostal space using a portable digital potentiometer brand HANNA HI 99163 (Mettler-Toledo Process Analytical Inc., Wilmington, Mass., USA). The weight of the hot carcass was recorded, then the carcasses were cooled to 0° C. for 24 h.
At 24 h postmortem the weight of the cold carcass was measured. In at least 36 carcasses per treatment, area in cm^2 rib eye, the thickness of back fat in mm, was evaluated. The degree of marbling was also evaluated following USDA guidelines (2000): Trace (300-399), Light (400-499), Little (500-599), Modest (600-699), Moderate (700-799), Slightly abundant (800-899). These determinations were made in the LD muscle to level 12th intercostal space. Finally, the quality level of the channel according to USDA (2000) was estimated, based on the degree of marbling and carcass physiological maturity: Select − (400-449), Select + (450-499) Choice − (500-599), Choice medium (600-699), Choice + (700-799), Prime (800 or greater).
as §1

For assay [3] the following is noted: compared with ferulic acid; cited from earlier work.
For another assay, the system named is β receptors. Conditions: bovine satellite cells, in vitro; cited from earlier work.
The test system of a further assay is swine. Conditions: 50 ppm, swine confinement; cited from earlier work.
The mark [4] stands for this setting: contrast C1: Control vs FE5+FE10, P<0.05.
Where [5] appears, read: FE supplemented vs control, P<0.05.

`CCOC(=O)/C=C/c1ccc(O)c(OC)c1` [ethyl ferulate]: in the assay on heifers [1] (FE5: 5 ppm/day), the Final weight was found to be 519.58 ± 5.4 kg, the Feed conversion was found to be 8.78 ± 0.6 kg, the Daily gain turned out to be 1.13 ± 0.04 kg and the Feed intake is recorded as 8.11 ± 0.07 kg. In the assay with heifers [1] (FE10: 10 ppm/day), this compound had a Final weight of 520.20 ± 5.63 kg, a Feed conversion of 7.25 ± 0.27 kg, a Daily gain of 1.23 ± 0.04 kg and a Feed intake of 8.09 ± 0.07 kg. In the assay on heifers [1] (FE supplemented heifers vs control), the “Less feed required to gain one kilogram of live weight” value came out at 4.3 kg. Moreover, in the assay on heifers [1] (setting [4]), the “Improvement in feed conversion relative to control” value is on record as 35% and the “Increase of daily gain (GDP) relative to control” value is on record as 26%. For the same compound, the “Thickness of the dorsal fat, effect of treatments” value in the assay on heifers [2] (5 and 10 ppm vs control, P>0.05) was “not affected by treatments”. The “Marbling, 10 ppm FE regarding 5 ppm FE” value in the assay with heifers [2] (10 ppm vs 5 ppm) was “higher marbling”. In addition, in the assay on heifers [2] (FE5: 5 ppm/day), the Backfat is 14.60 ± 1.05 mm, the Cold carcass yield is reported as 61.77 ± 0.16%, the Hot yield carcass turned out to be 62.38 ± 0.15% and the Rib eye area was found to be 85.67 ± 2.28 cm^2. In addition, in the assay with heifers [2] (FE5: 5 ppm/day), the Cold carcass weight amounted to 320.81 ± 3.25 kg, the Hot carcass weight worked out at 323.97 ± 3.25 kg, the Marbling is 578.57 ± 16 and the “% de Choice or greater” value worked out at 66.7%. Moreover, in the assay with heifers [2] (FE10: 10 ppm/day), the Backfat worked out at 15.82 ± 0.84 mm, the Cold carcass yield is listed as 61.68 ± 0.19%, the Hot yield carcass is recorded as 62.39 ± 0.19% and the Rib eye area was found to be 86.60 ± 1.87 cm^2. Also, in the assay with heifers [2] (FE10: 10 ppm/day), the Cold carcass weight was determined as 320.50 ± 3.19 kg, the Hot carcass weight is given as 324.19 ± 3.23 kg, the Marbling is 637.14 ± 15 and the “% de Choice or greater” value is given as 80%. Moreover, the “Hot carcass weight (PCC) greater than control” value with heifers [2] (FE supplemented heifers vs control, P<0.001) was found to be 1.80%. In addition, in the assay on heifers [2] (setting [5]), the “Increase of cold carcass weight (PCF) vs control” value was found to be 1.86% and the “Marbling of supplemented compared to non supplemented animals” value is on record as “More marbling”. The “Increase in carcass weight vs control” value in the assay with heifers [2] (hot carcass, FE supplemented vs control) is recorded as “more than 5 kg”. Besides, the “Antibacterial and antioxidant capacity” value in assay [3] was “very similar to those of ferulic acid”.
Consider `COc1cc(/C=C/C(=O)O)ccc1O` [AF, Ferulic acid], for which the “Recognition by β receptors on the cell membrane” value in the assay on β receptors is “recognized by β receptors”. Further, in the assay with swine, the “Back fat thickness over the control group” value is recorded as “decrease”.
